Results as given in patent US6083922A (priority 1997, dated 2000).
Values after ≈ are worked out from the molar mass of the structure shown. Values joined by “and” are separate entries in the source; they are usually repeats but may differ in a detail not shown here. Equal entries are not always repeated. Where two headings read alike, the source gives them in different places.

How the values were obtained:
[1] = test system: M. tuberculosis H37Rv(lux); assay: Killing curve assay; format: cell-based, Mycobacterium tuberculosis
clinical = format: in vivo, human; conditions: for Sputum Tobramycin Concentrations: individual subjects, 300 mg in 5 mL 1/4 NS
Procedure: (§1) The doses were separated by at least 2 days and not more than 5 days. Peak serum and sputum concentrations were assessed and results are seen in Tables 10 and 11.

[2] = Ultrasonic nebulizer delivery of tobramycin, effect of saline dilution (Example 2); conditions: for aerosolized output of tobramycin, MEAN: UltraAire, 60 mg/mL, 5 mL, 10 minutes
Procedure: This example describes testing performed to determine the effect of normal and quarter strength diluted saline on the aerosolization of tobramycin and on the amount of drug delivered over a ten-minute period.
To test output from a hand-held portable ultrasonic nebulizer, an UltraAirs by Omron was used. This ultrasonic nebulizer has a reusable medication cup that is placed over the ultrasonic crystal. […] After 10 minutes nebulization run, the cups were reweighed. The aerosolized output of tobramycin was determined from the difference between weight before and after the nebulization. Each solute was tested 14 times.

[3] = FEV1 change following aerosol administration (Example 5); format: in vivo, human; conditions: individual subjects, 300 mg, 30 min from completion
[4] = Comparative characteristics of nebulizers delivering tobramycin
Text: Both ultrasonic and jet nebulizers were studied.
An in vitro comparative study evaluated a variety of commercially available jet nebulizers, including among others, the Acorn II® by Marquest, T-Updraft® by Hudson, Sidestream® by Medicaid, and Pari LC® by Pari. The PulmoAide® compressor was chosen because of its reliability and widespread use.

[5] = test system: Drug-Sensitive Strains of M. tuberculosis; assay: microbe, parasite or virus in culture; format: cell-based; conditions: Mycobacterium tuberculosis
P. aeruginosa = conditions: aerosolized 600 mg tid, cited from earlier work
[6] = Serum tobramycin concentrations following aerosol administration (Example 5); format: in vivo, human; conditions: for Serum Tobramycin: individual subjects
Procedure: as §1

[7] = format: physicochemical
M. tuberculosis = assay: Minimal inhibitory / bactericidal concentration of tobramycin, general statements; set-up: species or system Mycobacterium tuberculosis
[8] = cited from earlier work
[9] = Randomized cross-over study of nebulizers, peak sputum tobramycin
Text: A randomized, cross-over study compared the ability of several nebulizers to deliver tobramycin by measuring peak sputum tobramycin concentrations in samples collected ten minutes after completion of the aerosol dose.

NNC(=O)c1ccncc1 [isoniazid]
persistence of bactericidal activity ([1]; FIG. 4): only temporary | day growth of the bacteria resumed ([1]; isoniazid 0.06 μg/mL): 4 days | day of initial sharp killing ([1]; isoniazid 0.06 μg/mL): 4 days | day growth of the bacteria resumed ([1]; isoniazid 0.25 μg/mL): 7 days | day of initial sharp killing ([1]; isoniazid 0.25 μg/mL): 1 days

NC[C@H]1O[C@H](O[C@H]2[C@H](O)[C@@H](O[C@H]3O[C@H](CO)[C@@H](O)[C@H](N)[C@H]3O)[C@H](N)C[C@@H]2N)[C@H](N)C[C@@H]1O [tobramycin]
time for which growth is prevented ([1]; 4 μg/mL): about eight | day at which growth is seen to be inhibited ([1]; 8 μg/mL): 7 days | day at which 2-log reduction is reached ([1]; 16 μg/mL): four | bactericidal activity compared to growth control ([1]; 1-2 μg/mL): bactericidal activity decreasing the count of M. tuberculosis | reduction of M. tuberculosis counts in vitro ([1]; 8 and 16 μg/mL): more than 2 log | activity against M. tuberculosis H37Rv in vitro ([1]; FIG. 4): potent activity | persistence of bactericidal activity ([1]; FIG. 4): continuous decrease and inhibition of M. tuberculosis growth | count of Mycobacterium tuberculosis after treatment ([1]; tobramycin 8 and 16 μg/mL, decreased from 10^6): about 10^2 CFU | concentration at 10 min (clinical; human, sputum, inhaled or intranasal, mean, Pari LC, 300 mg, 10 min): 396000 ± 677000 ng/g | Sputum Tobramycin Concentrations (clinical; Pari LC, 10 min from completion, 10 min): 1595.9 μg/gm and 764.2 μg/gm and 133.7 μg/gm and 166.5 μg/gm and 1395.6 μg/gm | Sputum Tobramycin Concentrations (clinical; Pari LC, 1 hour, 60 min): 481.8 μg/gm and 231.8 μg/gm and 110.7 μg/gm and 32.4 μg/gm and 186.8 μg/gm | Sputum Tobramycin Concentrations (clinical; Pari LC, 2 hours, 120 min): 416.8 μg/gm and 52.8 μg/gm and 92.5 μg/gm and 60.5 μg/gm and 131.8 μg/gm | Sputum Tobramycin Concentrations (clinical; Pari LC, baseline): bql (<20 μg/gm) | Sputum Tobramycin Concentrations (clinical; Sidestream, 10 min from completion, 10 min): 792.8 μg/gm and 460.6 μg/gm and 162.5 μg/gm and 84.2 μg/gm and 1135.9 μg/gm | Sputum Tobramycin Concentrations (clinical; Sidestream, 1 hour, 60 min): 1026.7 μg/gm and 23.1 μg/gm and 180.5 μg/gm and 36.6 μg/gm and 488.2 μg/gm | Sputum Tobramycin Concentrations (clinical; Sidestream, 2 hours, 120 min): 163 μg/gm and 49.1 μg/gm and 58.1 μg/gm and 57.5 μg/gm and 331.5 μg/gm | Sputum Tobramycin Concentrations (clinical; Sidestream, baseline): bql (<20 μg/gm) and bqi | Sputum Tobramycin Concentrations, Mean/Std Dev (clinical; mean, Pari LC, 300 mg, 1 hour): 186.8 μg/gm | Sputum Tobramycin Concentrations, Mean/Std Dev (clinical; mean, Pari LC, 300 mg, 2 hours): 131.8 μg/gm | Sputum Tobramycin Concentrations, Mean/Std Dev (clinical; mean, Pari LC, baseline): bql (<20 μg/gm) | Sputum Tobramycin Concentrations, Mean/Std Dev (clinical; mean, Sidestream, 300 mg, 10 min): 527.21 ± 585.9 μg/gm | Sputum Tobramycin Concentrations, Mean/Std Dev (clinical; mean, Sidestream, 300 mg, 1 hour): 488.2 μg/gm | Sputum Tobramycin Concentrations, Mean/Std Dev (clinical; mean, Sidestream, 300 mg, 2 hours): 331.5 μg/gm | Sputum Tobramycin Concentrations, Mean/Std Dev (clinical; mean, Sidestream, baseline): bql (<20 μg/gm) | amount of tobramycin delivered ([2]; 1/4 diluted saline versus full strength nondiluted saline): Higher amount of tobramycin was delivered | aerosolized output of tobramycin, MEAN ([2]; diluted 0.22% NS): 4.071 | aerosolized output of tobramycin, MEAN ([2]; nondiluted 0.9% NS): 3.636 | ± % change FEV1 ([3]; Pari LC): -1.2% and 1.2% and -0.6% and -2% and -5% | ± % change FEV1 ([3]; Sidestream): -2.2% and 0.0% and -7.6% and -1% | MMAD ([4]; DeVilbiss 99, 20 mg/mL in 1/2 NS): 4-5 microns | Time to Nebulize ([4]; DeVilbiss 99, 20 mg/mL in 1/2 NS, 30 mL): 10 to 12 min | Drug Dose/mL ([4]; DeVilbiss 99, 20 mg/mL in 1/2 NS, total dose 600 mg): 33 ± 1.8 mg | tobramycin delivered ([4]; DeVilbiss 99, 600 mg): 33 mg/mL | particle size ([4]; Pari LC): 4.5 μ | particle sizes ([4]; Pari LC Plus): 3.3 μ | MMAD ([4]; Pari LC, 60 mg/mL in 1/4 NS): 4-5 microns | Time to Nebulize ([4]; Pari LC, 60 mg/mL in 1/4 NS, 5 mL): 10 min | Drug Dose/mL ([4]; Pari LC, 60 mg/mL in 1/4 NS, total dose 300 mg): 29 ± 5 mg | particle size output ([4]; Sidestream): 2.2 μ | MMAD ([4]; Sidestream, 60 mg/mL in 1/4 NS): ~ 2.2 microns | Time to Nebulize ([4]; Sidestream, 60 mg/mL in 1/4 NS, 5 mL, time to sputtering of jet): ~ 13 minutes | Drug Dose/mL ([4]; Sidestream, 60 mg/mL in 1/4 NS, total dose 300 mg): 30 ± 1.8 mg | tobramycin delivered to the airways ([4]; all three nebulizers): about 30 mg/mL | MIC ([5]; H37RV, read-out: Tobramycin MIC, strain H37RV): 4 µg/mL (≈ 8.56 µM) | MIC ([5]; all tested drug sensitive strains, read-out: minimal inhibitory concentration): 4 to 8 µg/mL (≈ 8.56 to 17.1 µM) | MIC ([5]; read-out: Tobramycin MIC, strain TN675): 4 µg/mL (≈ 8.56 µM) | MIC ([5]; read-out: Tobramycin MIC, strain TN994): 4 µg/mL (≈ 8.56 µM) | MIC ([5]; read-out: Tobramycin MIC, strain TN1008): 4 µg/mL (≈ 8.56 µM) | MIC ([5]; read-out: Tobramycin MIC, strain TN1039): 4 µg/mL (≈ 8.56 µM) | MIC ([5]; read-out: Tobramycin MIC, strain TN2351): 8 µg/mL (≈ 17.1 µM) | MIC ([5]; read-out: Tobramycin MIC, strain TN2524): 4 µg/mL (≈ 8.56 µM) | MIC ([5]; read-out: Tobramycin MIC, strain TN3183): 4 µg/mL (≈ 8.56 µM) | MIC ([5]; read-out: Tobramycin MIC, strain TN3979): 4 µg/mL (≈ 8.56 µM) | MIC ([5]; read-out: Tobramycin MIC, strain TN4259): 4 µg/mL (≈ 8.56 µM) | spirometry (P. aeruginosa; 71 CF patients): improved spirometry | sputum density of P. aeruginosa (P. aeruginosa; 71 CF patients): significant reduction in sputum density of P. aeruginosa | safety and efficacy in CF patients (P. aeruginosa): both safe and efficacious | safety of the dosage ([6]; 300 mg aerosol, because of serum concentrations): extremely safe | serum concentrations ([6]; 300 mg in 5 mL of 60 mg/mL in 1/4 NS): < 1600 ng/mL | Serum Tobramycin ([6]; Pari LC, 300 mg in 5 mL 1/4 NS, 1 hour from completion, 60 min): 0.2 µg/mL and 0.5 µg/mL and 0.6 µg/mL and 0.8 µg/mL | Serum Tobramycin ([6]; Pari LC, 300 mg in 5 mL 1/4 NS, 2 hours from completion, 120 min): 0.3 µg/mL and 0.4 µg/mL and 0.5 µg/mL and 0.7 µg/mL | Serum Tobramycin ([6]; Pari LC, 300 mg, baseline): not detected | Serum Tobramycin ([6]; Sidestream, 300 mg in 5 mL 1/4 NS, 1 hour from completion, 60 min): 0.3 µg/mL and 0.2 µg/mL and 0.9 µg/mL and 1.2 µg/mL and 1.6 µg/mL | Serum Tobramycin ([6]; Sidestream, 300 mg in 5 mL 1/4 NS, 2 hours from completion, 120 min): 0.2 µg/mL and 0.8 µg/mL and 1.0 µg/mL | Serum Tobramycin ([6]; Sidestream, 300 mg, baseline): not detected | color of the solution ([7]; 60 mg/mL, 40° C., pH 7.0, after 35 days): yellowing of the solution | degradation of tobramycin ([7]; pH greater than 7.0): degradation of tobramycin occurs | MBC (M. tuberculosis; Mycobacterium tuberculosis, in the lungs and sputum, read-out: concentration found to be bactericidal): ≥ 8 µg/mL | MIC (M. tuberculosis; Mycobacterium tuberculosis, read-out: lowest systemic minimal inhibitory concentration): ~8 µg/mL (≈ 17.1 µM) | MIC (M. tuberculosis; Mycobacterium tuberculosis, systemic administration, read-out: minimal inhibitory concentration which would need to be present in the systemic circulation): 800 to 1000 µg/mL (≈ 1710 to 2140 µM) | sputum concentrations providing bactericidal activity, in multiples of MIC (M. tuberculosis; toward M. tuberculosis): 10-100 times MIC | maximum safe concentration in the serum [8]: 8 to 10 µg/mL | recommended peak therapeutic serum concentrations [8]: 8 to 10 µg/mL | time to complete nebulization of all 5 mL ([9]; Pari LC, 60 mg/mL in 1/4 NS): about ten | mass median aerodynamic diameter ([9]; Pari LC, 60 mg/mL in 5 mL 1/4 NS): about 3.3 μm | Cmax at 10 min ([9]; human, in vivo, inhaled or intranasal, 300 mg): ~679000 ng/g
